From ChEMBL document CHEMBL4725437, “P450s under Restriction (PURE) Screen Using HepaRG and Primary Human Hepatocytes for Discovery of Novel HBV Antivirals” (ACS Med Chem Lett, 2020) come the findings set out here.

Active and inactive are the calls of the source. The rule behind the calls is not given here.

In data set [1] the target is Cytochrome P450 3A4 (Homo sapiens, UniProt P08684). Put plainly: Inhibition of CYP3A4 in HBV-infected human primary hepatocytes at 5 to 100 uM using luciferin-IPA as substrate treated for 1 hr on day 5 post-infection followed by removal of media and supplemented with fresh media and further incubated for 3 days then followed by treatment for 1 hr on day 8 post-infection followed by removal of media and supplemented with fresh media and further incubated for 3 days and measured on day 11 post-infection by P450-Glo chemiluminescent assay. It counts as ADME, tissue-based, Primary hepatocyte. To be noted: dose 5-100 µM.
Cytochrome P450 3A4, sequence (P08684 whole entry): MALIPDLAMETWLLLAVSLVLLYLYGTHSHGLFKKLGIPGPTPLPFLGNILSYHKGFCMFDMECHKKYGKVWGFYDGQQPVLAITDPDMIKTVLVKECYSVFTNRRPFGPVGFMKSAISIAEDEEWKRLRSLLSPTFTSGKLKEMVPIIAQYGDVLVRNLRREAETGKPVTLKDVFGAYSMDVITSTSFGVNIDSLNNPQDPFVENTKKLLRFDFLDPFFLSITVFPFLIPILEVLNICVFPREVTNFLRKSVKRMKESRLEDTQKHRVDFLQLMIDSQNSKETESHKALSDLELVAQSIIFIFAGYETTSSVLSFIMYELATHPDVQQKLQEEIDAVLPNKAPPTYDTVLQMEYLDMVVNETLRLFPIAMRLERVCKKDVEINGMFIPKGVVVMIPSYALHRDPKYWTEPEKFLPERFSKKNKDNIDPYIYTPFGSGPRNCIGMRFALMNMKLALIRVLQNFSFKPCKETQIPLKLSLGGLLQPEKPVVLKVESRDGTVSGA

Data set [2] deals with T1, CYP1A2 (Homo sapiens, UniProt P05177).
T1 sequence (P05177 whole entry): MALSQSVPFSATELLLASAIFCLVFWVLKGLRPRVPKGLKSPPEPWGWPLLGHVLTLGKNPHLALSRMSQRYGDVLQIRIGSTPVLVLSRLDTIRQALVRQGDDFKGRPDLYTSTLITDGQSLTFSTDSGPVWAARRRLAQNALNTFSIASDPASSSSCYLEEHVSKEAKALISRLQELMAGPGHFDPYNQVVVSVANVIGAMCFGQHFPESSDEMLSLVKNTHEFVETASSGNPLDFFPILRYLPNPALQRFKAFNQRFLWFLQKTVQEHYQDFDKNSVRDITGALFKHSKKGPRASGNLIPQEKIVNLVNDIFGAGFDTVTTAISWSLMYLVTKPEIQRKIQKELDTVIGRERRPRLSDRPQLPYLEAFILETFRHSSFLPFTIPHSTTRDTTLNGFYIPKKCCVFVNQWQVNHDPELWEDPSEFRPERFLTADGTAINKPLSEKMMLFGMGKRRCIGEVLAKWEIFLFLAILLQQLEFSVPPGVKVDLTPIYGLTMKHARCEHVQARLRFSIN
Put plainly: Inhibition of CYP1A2 in HBV-infected human HepaRG cells at 50 uM using luciferin-1A2 as substrate treated for 1 hr on day 5 post-infection followed by removal of media and supplemented with fresh media and further incubated for 3 days by P450-Glo chemiluminescent assay relative to control. In kind it is ADME, tissue-based. The following applies: probe luciferin-1A2.

Data set [3] addresses T1, CYP1A2. Put plainly: Inhibition of CYP1A2 in HBV-infected human HepaRG cells at 50 uM using luciferin-1A2 as substrate treated for 1 hr on day 5 post-infection followed by removal of media and supplemented with fresh media and further incubated for 3 days then followed by treatment for 1 hr on day 8 post-infection followed by removal of media and supplemented with fresh media and further incubated for 3 days and measured on day 11 post-infection by P450-Glo chemiluminescent assay relative to control. It counts as ADME, tissue-based. The following applies: probe luciferin-1A2.

The test system of data set [4] is Hepatitis B virus. Put plainly: Antiviral activity against Hepatitis B virus infected in human primary hepatocytes assessed as reduction in HbsAg secretion level at 50 uM treated for 1 hr on day 5 post-infection followed by removal of media and supplemented with fresh media and further incubated for 3 days then followed by treatment for 1 hr on day 8 post-infection followed by removal of media and supplemented with fresh media and further incubated for 3 days in presence of 10 mM ABT and measured on day 11 post-infection by chemiluminescence immunostaining assay relative to control. It counts as functional, organism-based. The following applies: Primary hepatocyte.

Data set [5] deals with T2, CYP3A4 (Homo sapiens, UniProt P08684). Put plainly: Inhibition of CYP3A4 in HBV-infected human HepaRG cells at 50 uM using luciferin-IPA as substrate treated for 1 hr on day 5 post-infection followed by removal of media and supplemented with fresh media and further incubated for 3 days then followed by treatment for 1 hr on day 8 post-infection followed by removal of media and supplemented with fresh media and further incubated for 3 days and measured on day 11 post-infection by P450-Glo chemiluminescent assay relative to control. In kind it is ADME, tissue-based. The following applies: probe luciferin-IPA.
T2 sequence (P08684 whole entry): as the sequence (P08684 whole entry) above

Data set [6] relates to Hepatitis B virus. Put plainly: Antiviral activity against Hepatitis B virus infected in human HepaRG cells assessed as reduction in HbsAg secretion level at 50 uM treated for 1 hr on day 5 post-infection followed by removal of media and supplemented with fresh media and further incubated for 3 B37days then followed by treatment for 1 hr on day 8 post-infection followed by removal of media and supplemented with fresh media and further incubated for 3 days in presence of 10 mM ABT and measured on day 11 post-infection by chemiluminescence immunostaining assay. It counts as functional, organism-based.

Data set [7] deals with Hepatocyte. Put plainly: Cytotoxicity against human primary hepatocytes infected with HBV assessed as reduction in cell viability at 50 uM treated for 1 hr on day 5 post-infection followed by removal of media and supplemented with fresh media and further incubated for 3 days then followed by treatment for 1 hr on day 8 post-infection followed by removal of media and supplemented with fresh media and further incubated for 3 days in presence of 10 mM ABT and measured on day 11 post-infection by Celltiter-Glo assay relative to control. It counts as cell-based. Background: In ATP-based viability assays light output follows the ATP content of the culture.

Data set [8] concerns the target T1, CYP1A2. Put plainly: Inhibition of CYP1A2 in HBV-infected human HepaRG cells at 50 uM using luciferin-1A2 as substrate treated for 1 hr on day 5 post-infection followed by removal of media and supplemented with fresh media and further incubated for 3 days in presence of 10 mM ABT by P450-Glo chemiluminescent assay relative to control. It counts as ADME, tissue-based. To be noted: probe luciferin-1A2, with ABT 10 mM.

In data set [9] the target is CYP2C9 (Homo sapiens, UniProt P11712). Put plainly: Inhibition of CYP2C9 in HBV-infected human HepaRG cells at 10 mM using luciferin-H as substrate treated for 1 hr on day 5 post-infection followed by removal of media and supplemented with fresh media and further incubated for 3 days by P450-Glo chemiluminescent assay relative to control. In kind it is ADME, tissue-based. To be noted: probe luciferin-H.
CYP2C9, sequence (P11712 whole entry): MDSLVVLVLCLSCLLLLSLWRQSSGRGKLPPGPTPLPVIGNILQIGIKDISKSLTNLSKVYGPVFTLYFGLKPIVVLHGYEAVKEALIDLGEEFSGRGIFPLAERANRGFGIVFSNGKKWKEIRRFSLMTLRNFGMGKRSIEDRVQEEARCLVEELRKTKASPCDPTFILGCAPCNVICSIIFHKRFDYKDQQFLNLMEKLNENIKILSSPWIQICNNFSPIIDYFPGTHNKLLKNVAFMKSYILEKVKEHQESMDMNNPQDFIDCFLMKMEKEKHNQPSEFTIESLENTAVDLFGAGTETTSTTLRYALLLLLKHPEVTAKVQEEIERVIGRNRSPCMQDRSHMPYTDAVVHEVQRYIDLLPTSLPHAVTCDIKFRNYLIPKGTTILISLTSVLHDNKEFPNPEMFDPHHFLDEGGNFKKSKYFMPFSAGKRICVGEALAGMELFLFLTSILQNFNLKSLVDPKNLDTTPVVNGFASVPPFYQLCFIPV

Data set [10] has as its system HepaRG. Put plainly: Cytotoxicity against human HepaRG cells infected with HBV assessed as reduction in cell viability at 10 mM treated for 1 hr on day 5 post-infection followed by removal of media and supplemented with fresh media and further incubated for 3 days then followed by treatment for 1 hr on day 8 post-infection followed by removal of media and supplemented with fresh media and further incubated for 3 days in presence of 50 uM SKF-525A and measured on day 11 post-infection by Celltiter-Glo assay. In kind it is cell-based. The following applies: 10000 µM.

In data set [11] the target is T1, CYP1A2. The data set is described as follows: Inhibition of CYP1A2 in HBV-infected human HepaRG cells at 10 mM using luciferin-1A2 as substrate treated for 1 hr on day 5 post-infection followed by removal of media and supplemented with fresh media and further incubated for 3 days in presence of 50 uM SKF-525A by P450-Glo chemiluminescent assay relative to control. It counts as ADME, tissue-based. The following applies: probe luciferin-1A2, with SKF-525A 50 uM.

Data set [12] deals with T2, CYP3A4. Put plainly: Inhibition of CYP3A4 in HBV-infected human HepaRG cells at 10 mM using luciferin-IPA as substrate treated for 1 hr on day 5 post-infection followed by removal of media and supplemented with fresh media and further incubated for 3 days then followed by treatment for 1 hr on day 8 post-infection followed by removal of media and supplemented with fresh media and further incubated for 3 days and measured on day 11 post-infection by P450-Glo chemiluminescent assay relative to control. It counts as ADME, tissue-based. To be noted: probe luciferin-IPA.

The test system of data set [13] is Hepatocyte. The data set is described as follows: Cytotoxicity against human primary hepatocytes infected with HBV assessed as reduction in cell viability at 10 mM treated for 1 hr on day 5 post-infection followed by removal of media and supplemented with fresh media and further incubated for 3 days then followed by treatment for 1 hr on day 8 post-infection followed by removal of media and supplemented with fresh media and further incubated for 3 days in presence of 25 uM SKF-525A and measured on day 11 post-infection by Celltiter-Glo assay. It counts as cell-based. To be noted: 10000 µM.

As to `CCCC(C(=O)OCCN(CC)CC)(c1ccccc1)c1ccccc1` [PROADIFEN], the “inhibition (INH)” value in data set [1] was “Active”. Further, the inhibition at 1 h, 50 µM is 2.2% in data set [2], 30.8% in [3], 93% in data set [5] and 39.2% in [8]. Also, the outcome in data set [4] and in data set [6] was inactive. Moreover, the Activity in data set [7] came to 10%.
`Nn1nnc2ccccc21`: the results for the inhibition at 1 h, 10000 µM in data set [9] and in data set [11] were -9.4% and 39.2%, respectively. In addition, the Activity entry in data set [10] and in data set [13] was “Non-Toxic” each time. For the same compound, the inhibition at 1 h, 50 µM in data set [12] turned out to be 87.8%.

As usually defined, the inhibition is the change of the read-out against control, counted positive when it falls.
